Data reported in PubChem BioAssay (NCI).
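Results reflect a 48-hour exposure of cells in 96-well plates to compound at five concentrations. TGI: total growth inhibition.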

How the values were obtained:
Assay in all cases: DTP human tumour cell line panel, 48 h
SF-295 CNS = test system: SF-295 CNS
M14 melanoma = test system: M14 melanoma
CCRF-CEM leukemia = test system: CCRF-CEM leukemia
SW-620 colon = test system: SW-620 colon
HCT-15 colon = test system: HCT-15 colon
KM12 colon = test system: KM12 colon
KM20L2 colon = test system: KM20L2 colon
HT29 colon = test system: HT29 colon
SNB-75 CNS = test system: SNB-75 CNS
U251 CNS = test system: U251 CNS
HOP-62 NSCLC = test system: HOP-62 NSCLC
SK-MEL-2 melanoma = test system: SK-MEL-2 melanoma
HOP-92 NSCLC = test system: HOP-92 NSCLC
DMS 273 small cell lung = test system: DMS 273 small cell lung
UO-31 renal = test system: UO-31 renal
OVCAR-8 ovarian = test system: OVCAR-8 ovarian
UACC-62 melanoma = test system: UACC-62 melanoma
HCT-116 colon = test system: HCT-116 colon
NCI-H522 lung = test system: NCI-H522 lung
SF-268 CNS = test system: SF-268 CNS
SK-MEL-5 melanoma = test system: SK-MEL-5 melanoma
SK-MEL-28 melanoma = test system: SK-MEL-28 melanoma
EKVX NSCLC = test system: EKVX NSCLC
DMS 114 small cell lung = test system: DMS 114 small cell lung
A549 NSCLC = test system: A549 NSCLC
SNB-78 CNS = test system: SNB-78 CNS
IGROV1 ovarian = test system: IGROV1 ovarian
LXFL 529 NSCLC = test system: LXFL 529 NSCLC
OVCAR-5 ovarian = test system: OVCAR-5 ovarian
SNB-19 CNS = test system: SNB-19 CNS
ACHN renal = test system: ACHN renal
OVCAR-4 ovarian = test system: OVCAR-4 ovarian
SN12C renal = test system: SN12C renal
XF 498 CNS = test system: XF 498 CNS
UACC-257 melanoma = test system: UACC-257 melanoma
M19-MEL melanoma = test system: M19-MEL melanoma
CAKI-1 renal = test system: CAKI-1 renal
OVCAR-3 ovarian = test system: OVCAR-3 ovarian
LOX IMVI melanoma = test system: LOX IMVI melanoma
SF-539 CNS = test system: SF-539 CNS
RXF-631 renal = test system: RXF-631 renal
MOLT-4 leukemia = test system: MOLT-4 leukemia
HOP-18 NSCLC = test system: HOP-18 NSCLC
786-0 renal = test system: 786-0 renal
TK-10 renal = test system: TK-10 renal
K-562 leukemia = test system: K-562 leukemia
RPMI-8226 leukemia = test system: RPMI-8226 leukemia
COLO 205 colon = test system: COLO 205 colon
DLD-1 colon = test system: DLD-1 colon
RXF 393 renal = test system: RXF 393 renal
NCI-H460 lung = test system: NCI-H460 lung
SK-OV-3 ovarian = test system: SK-OV-3 ovarian
MALME-3M melanoma = test system: MALME-3M melanoma
NCI-H23 lung = test system: NCI-H23 lung
NCI-H226 lung = test system: NCI-H226 lung
HCC-2998 colon = test system: HCC-2998 colon
A498 renal = test system: A498 renal

Measured: TGI

COC(=O)C1=C(C(=O)OC)C2(C3C(SC)=CC(C)(C)CC3S1)N(Cc1ccccc1)CCN2Cc1ccccc1 (stereo not given)
16.1 µM: HOP-92 NSCLC
not listed: HCC-2998 colon | A498 renal
> 100 µM: all other assays above

C[C@]12CC[C@H](OC3CCCCO3)CC1=CC[C@@H]1C2CC[C@]2(C)/C(=N/OCCC#N)CCC12 (stereo not given in full)
40.2 µM: RXF 393 renal
72.9 µM: TK-10 renal
72.2 µM: 786-0 renal
57.6 µM: HOP-92 NSCLC
72.1 µM: SNB-78 CNS
20.5 µM: XF 498 CNS
58.4 µM: SNB-75 CNS
66.5 µM: OVCAR-4 ovarian
95.1 µM: NCI-H23 lung
not listed: CCRF-CEM leukemia | HT29 colon | SF-268 CNS | OVCAR-5 ovarian | MOLT-4 leukemia | COLO 205 colon | NCI-H226 lung
> 100 µM: all other assays above

C/C(=N/NC(=O)c1ccccc1O)c1ccc(/C(C)=N\NC(=O)c2ccccc2O)c2nc3cc(C)c(C)cc3nc12
not listed: CAKI-1 renal | RPMI-8226 leukemia
> 100 µM: all other assays above
